# Laboratory results taken from patent US10993983B2, “Cyclic peptide epitopes and small-molecule mimics for inducing autophagy” (TRUSTEES OF TUFTS COLLEGE, priority 2016, dated 2021).
# Marks after values point to notes of the source that are not given here. Where no end group is shown, it is not given here. c(FΦRRRRE) = cyclic peptide with F and E termini bonded, Φ = L-2-naphthylalanine
# Legend:
# [1] = tested on: p62; assay: p62 degradation assay (p62/actin immunoblot);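 as to Activity (μM) 10, p62/actin assay activity: HeLa cells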;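 as to Activity (μM) 100, p62/actin assay activity: HeLa cells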;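 as to Activity (μM) 20, p62/actin assay activity: HeLa cells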;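 as to Activity (μM) 30, p62/actin assay activity: HeLa cells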;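 as to Activity (μM) 50, p62/actin assay activity: HeLa cells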; type: cell-based; parameters: key: −: activity not reported; 0: decreased vs. WT; +: similar to WT; ++: modest increase vs. WT; +++: significant increase vs. WT; settings: for Activity (μM) 10, p62/actin assay activity: 10 μM; for Activity (μM) 30, p62/actin assay activity: 30 μM; for Activity (μM) 50, p62/actin assay activity: 50 μM; for Activity (μM) 100, p62/actin assay activity: 100 μM; for Activity (μM) 20, p62/actin assay activity: 20 μM
# Description: (§1) Cells were treated with peptide in OPTI-MEM (Thermo Scientific) acidified with 0.15% (v/v) 6N HCl for 3 hour. Cells were rinsed with Dulbecco's phosphate buffered saline (PBS) and lysed in lysis buffer (20 mM HEPES, 150 mM NaCl, 1 mM EDTA, 1% Triton X-100, protease inhibitor cocktail (Roche) on ice for 1 hour. Cell lysates were centrifuged at 16,000 g for 10 min at 4° C. and analyzed by SDS-PAGE and transferred to PVDF membranes. The membranes were blocked 5% non-fat dry milk (NFDM) in PBST (PBS+0.05% Tween-20) for 1 hour, then incubated overnight at 4° C. with primary antibody in 5% NFDM in PBST. The blots were washed with PBST and incubated with HRP-conjugated secondary antibodies diluted in 5% NFDM in PBST for 1 hour at room temperature. Membranes were washed with PBST and visualized with SuperSignal West Pico Chemiluminescent Substrate (Thermo Scientific). Semi-quantitative results were obtained by noting the lowest concentration at which both p62 degradation and LC3-I to LC3-II conversion were observed.
# (§2) Compounds 1-10 were evaluated using the assays described in Examples 4 and 5. Activity for each compound was measured in the p62 degradation assay and the LC3 marker assay as described herein. The activity at each concentration of peptide is given as, for example, (0/+) where 0 would be the p62/actin assay activity and + would be the LC3 assay activity.
# [2] = tested on: LC3; assay: LC3 marker assay (LC3-I to LC3-II conversion immunoblot);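 as to Activity (μM) 10, LC3 assay activity: HeLa cells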;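 as to Activity (μM) 100, LC3 assay activity: HeLa cells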;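 as to Activity (μM) 20, LC3 assay activity: HeLa cells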;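 as to Activity (μM) 30, LC3 assay activity: HeLa cells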;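 as to Activity (μM) 50, LC3 assay activity: HeLa cells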; type: cell-based; parameters: key: −: activity not reported; 0: decreased vs. WT; +: similar to WT; ++: modest increase vs. WT; +++: significant increase vs. WT; settings: for Activity (μM) 10, LC3 assay activity: 10 μM; for Activity (μM) 30, LC3 assay activity: 30 μM; for Activity (μM) 50, LC3 assay activity: 50 μM; for Activity (μM) 100, LC3 assay activity: 100 μM; for Activity (μM) 20, LC3 assay activity: 20 μM
# Description: as §1, §2
# [3] = Table 8, control compound T25, first symbol
# [4] = Table 8, control compound T25, second symbol
# [5] = Table 7, control compound T25, first symbol
# [6] = Table 7, control compound T25, second symbol
# [7] = Table 3, control vehicle, first symbol of cell
# [8] = Table 3, control vehicle, first symbol
# [9] = Table 3, control vehicle, second symbol of cell
# [10] = Table 3, control vehicle, second symbol
# [11] = Table 6, control DMSO, first symbol
# [12] = Table 6, control DMSO, second symbol
sequence,measurement,setting,value
VCNACFHIWH [Compound 56],"Activity (μM) 10, p62/actin assay activity",[1]; [3],0/0
same,"Activity (μM) 30, p62/actin assay activity",[1]; [3],+
same,"Activity (μM) 50, p62/actin assay activity",[1]; [3],+
same,"Activity (μM) 10, LC3 assay activity",[2]; [4],0/0
same,"Activity (μM) 30, LC3 assay activity",[2]; [4],0
same,"Activity (μM) 50, LC3 assay activity",[2]; [4],0
VCNATCHIWH [Compound 27],"Activity (μM) 30, p62/actin assay activity",[1]; [5],0/0
same,"Activity (μM) 50, p62/actin assay activity",[1]; [5],0/0
same,"Activity (μM) 100, p62/actin assay activity",[1]; [5],0/0
same,"Activity (μM) 30, LC3 assay activity",[2]; [6],0/0
same,"Activity (μM) 50, LC3 assay activity",[2]; [6],0/0
same,"Activity (μM) 100, LC3 assay activity",[2]; [6],0/0
VCNATCHIWH [Compound 2],"Activity (μM) 10, p62/actin assay activity",[1]; [7],0/0
same,"Activity (μM) 20, p62/actin assay activity",[1]; [8],0/0
same,"Activity (μM) 30, p62/actin assay activity",[1]; [3],0/0
same,"Activity (μM) 50, p62/actin assay activity",[1]; [8],0/0
same,"Activity (μM) 50, p62/actin assay activity",[1]; [3],0
same,"Activity (μM) 100, p62/actin assay activity",[1]; [8],0/0
same,"Activity (μM) 10, starred cell, p62/actin assay activity","[1]; Table 8, 10 μM marked * (footnote: data taken at 20 instead of 30 μM), first symbol",0/0*
same,"Activity (μM) 10, LC3 assay activity",[2]; [9],0/0
same,"Activity (μM) 20, LC3 assay activity",[2]; [10],0/0
same,"Activity (μM) 30, LC3 assay activity",[2]; [4],0/0
same,"Activity (μM) 50, LC3 assay activity",[2]; [10],0/0
same,"Activity (μM) 50, LC3 assay activity",[2]; [4],+
same,"Activity (μM) 100, LC3 assay activity",[2]; [10],0/0
same,"Activity (μM) 10, starred cell, LC3 assay activity","[2]; Table 8, 10 μM marked * (footnote: data taken at 20 instead of 30 μM), second symbol",0/0*
VCNATCHIWH [Compound 49],"Activity (μM) 50, p62/actin assay activity",[1]; [3],+++/+++
same,"Activity (μM) 100, p62/actin assay activity",[1]; [3],+++/+++
same,"Activity (μM) 50, LC3 assay activity",[2]; [4],+++/+++
same,"Activity (μM) 100, LC3 assay activity",[2]; [4],+++/+++
VCNATCHIWH [Compound 19],"Activity (μM) 10, p62/actin assay activity",[1]; [11],+
same,"Activity (μM) 30, p62/actin assay activity",[1]; [11],++
same,"Activity (μM) 50, p62/actin assay activity",[1]; [11],++
same,"Activity (μM) 100, p62/actin assay activity",[1]; [11],+++
same,"Activity (μM) 10, LC3 assay activity",[2]; [12],0
same,"Activity (μM) 30, LC3 assay activity",[2]; [12],0
same,"Activity (μM) 50, LC3 assay activity",[2]; [12],+
same,"Activity (μM) 100, LC3 assay activity",[2]; [12],+
VWNATFHIWHD [62] ({c(FΦRRRRE)}-VWNATFHIWHD; not fully specified; printed as R1 cyclic c(FΦRRRRE) attached) [Compound 62],"Activity (μM) 10, p62/actin assay activity",[1]; [3],++
same,"Activity (μM) 30, starred cell, p62/actin assay activity","[1]; Table 8, *Data taken at 20 instead of 30 μM, first symbol",+++/+++*
same,"Activity (μM) 10, LC3 assay activity",[2]; [4],+++
same,"Activity (μM) 30, starred cell, LC3 assay activity","[2]; Table 8, *Data taken at 20 instead of 30 μM, second symbol",+++/+++*
VCNATCHIWH [Compound 18],"Activity (μM) 10, p62/actin assay activity",[1]; [11],0/0
same,"Activity (μM) 30, p62/actin assay activity",[1]; [11],0/0
same,"Activity (μM) 50, p62/actin assay activity",[1]; [11],0/0
same,"Activity (μM) 100, p62/actin assay activity",[1]; [11],0/0
same,"Activity (μM) 10, LC3 assay activity",[2]; [12],0/0
same,"Activity (μM) 30, LC3 assay activity",[2]; [12],0/0
same,"Activity (μM) 50, LC3 assay activity",[2]; [12],0/0
same,"Activity (μM) 100, LC3 assay activity",[2]; [12],0/0
"YGRKKRRQRRRGGVWNATFHIWHD [7] (Ac-YGRKKRRQRRRGGVWNATFHIWHD-NH2) [Compound 7, likely Tat-11mer]","Activity (μM) 10, p62/actin assay activity",[1]; [7],0
same,"Activity (μM) 20, p62/actin assay activity",[1]; [8],+++/+++
same,"Activity (μM) 10, LC3 assay activity",[2]; [9],++
same,"Activity (μM) 20, LC3 assay activity",[2]; [10],+++/+++
VCNATCHIWH [Compound 29],"Activity (μM) 30, p62/actin assay activity",[1]; [5],0/0
same,"Activity (μM) 50, p62/actin assay activity",[1]; [5],+
same,"Activity (μM) 100, p62/actin assay activity",[1]; [5],++
same,"Activity (μM) 30, LC3 assay activity",[2]; [6],0/0
same,"Activity (μM) 50, LC3 assay activity",[2]; [6],0
same,"Activity (μM) 100, LC3 assay activity",[2]; [6],0
VCNATCHIWH [Compound 20],"Activity (μM) 10, p62/actin assay activity",[1]; [11],++/++
same,"Activity (μM) 30, p62/actin assay activity",[1]; [11],+++
same,"Activity (μM) 50, p62/actin assay activity",[1]; [11],+++
same,"Activity (μM) 100, p62/actin assay activity",[1]; [11],+++
same,"Activity (μM) 10, LC3 assay activity",[2]; [12],++/++
same,"Activity (μM) 30, LC3 assay activity",[2]; [12],++
same,"Activity (μM) 50, LC3 assay activity",[2]; [12],++
same,"Activity (μM) 100, LC3 assay activity",[2]; [12],++
